Read-outs that look alike come from different tables or passages of the source.
Experiment: Determination of stability of UTP and related compound (solution left to stand, HPLC, decomposition rate)
Type: physicochemical
Procedure: In order to evaluate stability of UTP free, stability of aqueous solutions of UTP free and UTP sodium salt (UTP-Na) and a dimethylacetamide solution of UTP-tributylamine salt (UTP-TBA) was examined. Also, stability of aqueous solutions of UDP free and UDP-Na as comparison control was also determined. The solution of each substance was left to stand for a certain period at −20° C., 25° C. or 50° C., and the concentration of each substance was determined by HPLC to calculate a decomposition rate. Here, the decomposition rate was defined as the following [equation 1]. Decomposition rate (%) of each substance={100−(HPLC % of each substance at determination/HPLC % of each substance at test start)×100} [equation 1]

[1] = aqueous solution left to stand at 25° C., 8 h, 16 mM UTP free, 10 mM UDP free
[2] = aqueous solution left to stand at 25° C., 24 h, 16 mM UTP free, 10 mM UDP free
[3] = 50° C., 8 h, 35 mM UTP-TBA in dimethylacetamide solution, 40 mM UTP-Na and 40 mM UDP-Na in aqueous solution
[4] = 50° C., 24 h, 35 mM UTP-TBA in dimethylacetamide solution, 40 mM UTP-Na and 40 mM UDP-Na in aqueous solution

Compound	Decomposition rate [1]	Decomposition rate [2]	Decomposition rate [3]	Decomposition rate [4]	Stability during storage of the solution	Decomposition rate (aqueous solution left to stand at −20° C., 18 h, 16 mM UTP free)	Stability during storage of the solution (compared to UTP sodium salt, UDP free and UDP sodium salt)
O=c1ccn([C@@H]2O[C@H](COP(=O)(O)OP(=O)(O)O)[C@@H](O)[C@H]2O)c(=O)[nH]1 [UDP free, uridine 5′-diphosphoric acid]	0%	0%					
O=c1ccn([C@@H]2O[C@H](COP(=O)([O-])OP(=O)([O-])O)[C@@H](O)[C@H]2O)c(=O)[nH]1.[Na+].[Na+] [UDP-Na, UDP sodium salt]			2%	5%			
O=c1ccn([C@@H]2O[C@H](COP(=O)(O)OP(=O)(O)OP(=O)(O)O)[C@@H](O)[C@H]2O)c(=O)[nH]1 [UTP free, uridine 5′-triphosphoric acid]	4%	12%			clearly low stability	4%	
O=c1ccn([C@@H]2O[C@H](COP(=O)([O-])OP(=O)([O-])OP(=O)([O-])O)[C@@H](O)[C@H]2O)c(=O)[nH]1.[Na+].[Na+].[Na+] [UTP-Na, UTP sodium salt]			2%	6%			
CCCCN(CCCC)CCCC.O=c1ccn([C@@H]2O[C@H](COP(=O)(O)OP(=O)(O)OP(=O)(O)O)[C@@H](O)[C@H]2O)c(=O)[nH]1 [UTP-TBA, UTP-tributylamine salt]			7%	18%			clearly low stability

Reference: patent publication US10179799B2, “Method for producing P1,P4-di(uridine 5′-) tetraphosphate” (YAMASA CORPORATION, priority 2012, dated 2019)
